We go through 21 molecules from BindingDB's records for doi:10.1016/s0960-894x(99)00360-1 (Parke-Davis Pharmaceutical Research, 1999).

This experiment concerns the target T1, Dimer of Gag-Pol polyprotein [489-587] (Human immunodeficiency virus 1, UniProt P12497).
T1 construct: 489-587
The experiment in a line: Protease Inhibition Assay. As to conditions: pH 6.2; 37 °C. The procedure: For determination of IC50 values, HIV-1 protease was added to assay buffer containing inhibitor and the substrate (H-His-Lys-Ala-Arg-Val-Leu- (p-NO2) Phe-Glu-Ala-norleucine-Ser-NH2). The Leu- (p-NO2) Phe bond of the substrate was cleaved by the enzyme, and the substrate and products were separated by reversed-phase HPLC. Absorbance was measured at 220 nm, peak areas were determined, and percentage conversion to product was calculated.

In general, IC50 refers to the concentration that gives 50% inhibition. In turn, `Cc1cc(SC2C(=O)CC(CCc3ccc(N)cc3)(C(C)C)OC2=O)c(C(C)(C)C)cc1OS(=O)(=O)N(C)C` (stereo unspecified) [4-({6-[2-(4-aminophenyl)ethyl]-4-hydroxy-2-oxo-6-(propan-2-yl)-5,6-dihydro-2H-pyran-3-yl}sulfanyl)-5-tert-butyl-2-methylphenyl N,N-dimethylsulfamate] showed an IC50 of 3.9 nM.
Molecule `CCCNS(=O)(=O)Oc1cc(C(C)(C)C)c(SC2C(=O)CC(CCc3ccc(O)cc3)(C(C)C)OC2=O)cc1C` (stereo unspecified) [5-tert-butyl-4-({4-hydroxy-6-[2-(4-hydroxyphenyl)ethyl]-2-oxo-6-(propan-2-yl)-5,6-dihydro-2H-pyran-3-yl}sulfanyl)-2-methylphenyl N-propylsulfamate] showed an IC50 of 3 nM.
Turning to `Cc1cc(SC2C(=O)CC(CCc3ccc(N)cc3)(C(C)C)OC2=O)c(C(C)(C)C)cc1OS(=O)(=O)N1CCN(C)CC1` (stereo unspecified) [4-({6-[2-(4-aminophenyl)ethyl]-4-hydroxy-2-oxo-6-(propan-2-yl)-5,6-dihydro-2H-pyran-3-yl}sulfanyl)-5-tert-butyl-2-methylphenyl 4-methylpiperazine-1-sulfonate], the IC50 was determined as 1 nM.
To `Cc1cc(SC2C(=O)CC(C)(CCc3ccc(O)cc3)OC2=O)c(C(C)(C)C)cc1OS(=O)(=O)N(C)C` (stereo unspecified) [5-tert-butyl-4-({4-hydroxy-6-[2-(4-hydroxyphenyl)ethyl]-6-methyl-2-oxo-5,6-dihydro-2H-pyran-3-yl}sulfanyl)-2-methylphenyl N,N-dimethylsulfamate] belongs 1.6 nM.
The value for `Cc1cc(SC2C(=O)CC(C)(CCc3ccc(O)cc3)OC2=O)c(C(C)(C)C)cc1OS(=O)(=O)N1CCN(C)CC1` (stereo unspecified) [5-tert-butyl-4-({4-hydroxy-6-[2-(4-hydroxyphenyl)ethyl]-6-methyl-2-oxo-5,6-dihydro-2H-pyran-3-yl}sulfanyl)-2-methylphenyl 4-methylpiperazine-1-sulfonate] was 7.1 nM; that for `Cc1cc(SC2C(=O)CC(C)(CCc3ccc(O)cc3)OC2=O)c(C(C)(C)C)cc1OS(N)(=O)=O` (stereo unspecified) [[5-tert-butyl-4-({4-hydroxy-6-[2-(4-hydroxyphenyl)ethyl]-6-methyl-2-oxo-5,6-dihydro-2H-pyran-3-yl}sulfanyl)-2-methylphenyl] sulfamate] was 1.8 nM.
The value for `Cc1cc(SC2C(=O)CC(CCc3ccc(O)cc3)(C3CCCCC3)OC2=O)c(C(C)(C)C)cc1OS(=O)(=O)N(C)C` (stereo unspecified) [5-tert-butyl-4-({6-cyclohexyl-4-hydroxy-6-[2-(4-hydroxyphenyl)ethyl]-2-oxo-5,6-dihydro-2H-pyran-3-yl}sulfanyl)-2-methylphenyl N,N-dimethylsulfamate] was 20 nM.
`CCNS(=O)(=O)Oc1cc(C(C)(C)C)c(SC2C(=O)CC(C)(CCc3ccc(O)cc3)OC2=O)cc1C` (stereo unspecified) [5-tert-butyl-4-({4-hydroxy-6-[2-(4-hydroxyphenyl)ethyl]-6-methyl-2-oxo-5,6-dihydro-2H-pyran-3-yl}sulfanyl)-2-methylphenyl N-ethylsulfamate] had an IC50 of 2.3 nM.
To `CCNS(=O)(=O)Oc1cc(C(C)(C)C)c(SC2C(=O)CC(CCc3ccccc3)(C(C)C)OC2=O)cc1C` (stereo unspecified) belongs 8.9 nM.
With `CNS(=O)(=O)Oc1cc(C(C)(C)C)c(SC2C(=O)CC(CCc3ccc(O)cc3)(C(C)C)OC2=O)cc1C` (stereo unspecified) [5-tert-butyl-4-({4-hydroxy-6-[2-(4-hydroxyphenyl)ethyl]-2-oxo-6-(propan-2-yl)-5,6-dihydro-2H-pyran-3-yl}sulfanyl)-2-methylphenyl N-methylsulfamate], the IC50 was determined as 1.2 nM.
To `Cc1cc(SC2C(=O)CC(CCc3ccc(O)cc3)(C3CCCCC3)OC2=O)c(C(C)(C)C)cc1OS(=O)(=O)N1CCN(C)CC1` (stereo unspecified) [5-tert-butyl-4-({6-cyclohexyl-4-hydroxy-6-[2-(4-hydroxyphenyl)ethyl]-2-oxo-5,6-dihydro-2H-pyran-3-yl}sulfanyl)-2-methylphenyl 4-methylpiperazine-1-sulfonate] belongs 9.7 nM.
To `Cc1cc(SC2C(=O)CC(CCc3ccc(O)cc3)(C(C)C)OC2=O)c(C(C)(C)C)cc1OS(=O)(=O)N(C)C` (stereo unspecified) [6-Alkyl-5,6-Dihydropyran-2-one 22] belongs 3.4 nM.
To `Cc1cc(SC2C(=O)CC(C)(CCc3ccc(O)cc3)OC2=O)c(C(C)(C)C)cc1O` (stereo unspecified) [6-Alkyl-5,6-Dihydropyran-2-one 13] belongs 6.5 nM; to `Cc1cc(SC2C(=O)CC(CCc3ccccc3)(C(C)C)OC2=O)c(C(C)(C)C)cc1OS(=O)(=O)N1CCN(C)CC1` (stereo unspecified) [5-tert-butyl-4-{[4-hydroxy-2-oxo-6-(2-phenylethyl)-6-(propan-2-yl)-5,6-dihydro-2H-pyran-3-yl]sulfanyl}-2-methylphenyl 4-methylpiperazine-1-sulfonate], 3.9 nM; to `Cc1cc(SC2C(=O)CC(CCc3ccc(O)cc3)(C(C)C)OC2=O)c(C(C)(C)C)cc1OS(=O)(=O)N1CCN(C)CC1` (stereo unspecified) [5-tert-butyl-4-({4-hydroxy-6-[2-(4-hydroxyphenyl)ethyl]-2-oxo-6-(propan-2-yl)-5,6-dihydro-2H-pyran-3-yl}sulfanyl)-2-methylphenyl 4-methylpiperazine-1-sulfonate], 3.1 nM.
`CCNS(=O)(=O)Oc1cc(C(C)(C)C)c(SC2C(=O)CC(CCc3ccc(O)cc3)(C3CCCCC3)OC2=O)cc1C` (stereo unspecified) [5-tert-butyl-4-({6-cyclohexyl-4-hydroxy-6-[2-(4-hydroxyphenyl)ethyl]-2-oxo-5,6-dihydro-2H-pyran-3-yl}sulfanyl)-2-methylphenyl N-ethylsulfamate]: the IC50 came out at 4.8 nM.
The value for `CCNS(=O)(=O)Oc1cc(C(C)(C)C)c(SC2C(=O)CC(CCc3ccc(O)cc3)(c3ccccc3)OC2=O)cc1C` (stereo unspecified) [5-tert-butyl-4-({4-hydroxy-6-[2-(4-hydroxyphenyl)ethyl]-2-oxo-6-phenyl-5,6-dihydro-2H-pyran-3-yl}sulfanyl)-2-methylphenyl N-ethylsulfamate] was 26 nM.
The value for `CCCNS(=O)(=O)Oc1cc(C(C)(C)C)c(SC2C(=O)CC(C)(CCc3ccc(O)cc3)OC2=O)cc1C` (stereo unspecified) [5-tert-butyl-4-({4-hydroxy-6-[2-(4-hydroxyphenyl)ethyl]-6-methyl-2-oxo-5,6-dihydro-2H-pyran-3-yl}sulfanyl)-2-methylphenyl N-propylsulfamate] was 6.2 nM; that for `CCNS(=O)(=O)Oc1cc(C(C)(C)C)c(SC2C(=O)CC(CCc3ccc(O)cc3)(C(C)C)OC2=O)cc1C` (stereo unspecified) [6-Alkyl-5,6-Dihydropyran-2-one 20] was 4.9 nM; that for `CCNS(=O)(=O)Oc1cc(C(C)(C)C)c(SC2C(=O)CC(CCc3ccc(N)cc3)(C(C)C)OC2=O)cc1C` (stereo unspecified) [4-({6-[2-(4-aminophenyl)ethyl]-4-hydroxy-2-oxo-6-(propan-2-yl)-5,6-dihydro-2H-pyran-3-yl}sulfanyl)-5-tert-butyl-2-methylphenyl N-ethylsulfamate] was 4.3 nM.
In turn, `Cc1cc(SC2C(=O)CC(CCc3ccc(O)cc3)(C(C)C)OC2=O)c(C(C)(C)C)cc1OS(=O)(=O)N1CCOCC1` (stereo unspecified) [5-tert-butyl-4-({4-hydroxy-6-[2-(4-hydroxyphenyl)ethyl]-2-oxo-6-(propan-2-yl)-5,6-dihydro-2H-pyran-3-yl}sulfanyl)-2-methylphenyl morpholine-4-sulfonate] returned an IC50 of 2.6 nM.
